This is an account of results in publication PMC11434749, “In Vitro Interaction of Binuclear Copper Complexes with Liver Drug-Metabolizing Cytochromes P450” (Pharmaceuticals, 2024).

One series concerns the target T1, CYP2C19 (Homo sapiens, UniProt P33261).
T1 construct: Pooled human liver microsomes were obtained from Biopredic (Rennes, France); tissue Biopredic (Rennes, France); host or cells: pooled human liver microsomes, seventeen donors
Put plainly: Inhibition of CYP2C19 activity (diazepam N-desmethylation) in human liver microsomes. Type of series: in vitro ADME. To be noted: HLM, diazepam 150 µmol·L^−1, preincubation 30 min at 37 °C, Mean ± S.D. On the procedure: The following enzyme assays were performed to determine the activities of specific CYP enzymes: CYP1A2, 7-ethoxyresorufin O-deethylation; CYP2A6, coumarin 7-hydroxylation; CYP2B6, 7-ethoxy-4-(trifluoromethyl) coumarin (EFC) O-deethylation; CYP2C8 paclitaxel 6α-hydroxylation; CYP2C9, diclofenac 4′-hydroxylation; CYP2C19, diazepam N-desmethylation; CYP2D6, bufuralol 1′-hydroxylation; CYP2E1, chlorzoxazone 6-hydroxylation; and CYP3A4/5, testosterone 6β-hydroxylation.
The incubation mixtures contained 100 mmol·L^−1 potassium phosphate buffer (pH 7.4), an NADPH-generating system (0.8 mmol·L^−1 NADP^+, 5.8 mmol·L^−1 isocitrate, 0.3 unit/mL of isocitrate dehydrogenase, and 8 mmol·L^−1 MgCl2), HLM, and an individual probe substrate.
For the determination of metabolites formed from specific substrates, a Prominence LC-20A HPLC system (Shimadzu, Kyoto, Japan) with UV detection or fluorescence detection was used (see Table 2). As a rule, reversed-phase chromatography was applied with Merck (Darmstadt, Germany) LiChroCART 250 × 4 mm (i.d.) cartridges packed with a LiChrospher RP-18 silica gel (5 µm particle size) with C-18 reversed-phase properties; a 4 × 4 mm (i.d.) guard column was also used. For the composition of the mobile phase in the respective analyses, see the original reference.
Initially, for each enzyme assay, a preliminary experiment was carried out to determine Km and Vmax to obtain the appropriate concentration of the specific substrates for the inhibition experiments (the substrate concentration was chosen in the range corresponding to the value of the Km for each particular reaction). Data were analyzed using the Sigma plot software, as mentioned above, with spectral studies. Inhibition experiments were performed with a concentration range of the tested complexes from 0.78 to 50 µmol·L^−1. The concentration range used here is in accordance with the MIC (see above) and is adequate. The experimental conditions were the same as for the determination of individual CYP activities (Table 2); the assays were performed in duplicates, with individual values differing by less than 20%. Preincubation of the reaction mixtures with the tested complexes for 30 min at 37 °C was carried out in all assays. In all cases, the inhibition of individual CYP activities was evaluated by plotting the respective remaining activity against the inhibitor concentration.

The target of the next series is T2, CYP2C9 (Homo sapiens, UniProt P11712).
T2 construct: Pooled human liver microsomes were obtained from Biopredic (Rennes, France); tissue Biopredic (Rennes, France); host or cells: pooled human liver microsomes, seventeen donors
T2 sequence (P11712 whole entry): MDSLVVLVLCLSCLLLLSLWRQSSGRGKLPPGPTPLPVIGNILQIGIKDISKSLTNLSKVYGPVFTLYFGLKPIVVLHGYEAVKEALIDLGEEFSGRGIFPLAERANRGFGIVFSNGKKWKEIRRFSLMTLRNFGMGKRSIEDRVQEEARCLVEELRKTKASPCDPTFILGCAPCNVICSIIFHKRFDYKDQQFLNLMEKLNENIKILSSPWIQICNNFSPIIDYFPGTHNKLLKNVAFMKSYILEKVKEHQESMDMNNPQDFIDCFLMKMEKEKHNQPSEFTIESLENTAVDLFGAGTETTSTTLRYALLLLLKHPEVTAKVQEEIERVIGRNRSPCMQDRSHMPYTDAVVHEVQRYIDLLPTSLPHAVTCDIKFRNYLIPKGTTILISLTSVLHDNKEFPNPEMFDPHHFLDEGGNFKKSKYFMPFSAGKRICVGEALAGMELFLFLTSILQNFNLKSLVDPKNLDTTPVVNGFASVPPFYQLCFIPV
Kind of series: Inhibition of CYP2C9 activity (diclofenac 4′-hydroxylation) in human liver microsomes. Type of series: in vitro ADME. The settings on record: HLM, diclofenac 16 µmol·L^−1, preincubation 30 min at 37 °C, Mean ± S.D. As to the method: The following enzyme assays were performed to determine the activities of specific CYP enzymes: CYP1A2, 7-ethoxyresorufin O-deethylation; CYP2A6, coumarin 7-hydroxylation; CYP2B6, 7-ethoxy-4-(trifluoromethyl) coumarin (EFC) O-deethylation; CYP2C8 paclitaxel 6α-hydroxylation; CYP2C9, diclofenac 4′-hydroxylation; CYP2C19, diazepam N-desmethylation; CYP2D6, bufuralol 1′-hydroxylation; CYP2E1, chlorzoxazone 6-hydroxylation; and CYP3A4/5, testosterone 6β-hydroxylation. […]
For the determination of metabolites formed from specific substrates, a Prominence LC-20A HPLC system (Shimadzu, Kyoto, Japan) with UV detection or fluorescence detection was used (see Table 2). […]
Initially, for each enzyme assay, a preliminary experiment was carried out to determine Km and Vmax to obtain the appropriate concentration of the specific substrates for the inhibition experiments (the substrate concentration was chosen in the range corresponding to the value of the Km for each particular reaction). Data were analyzed using the Sigma plot software, as mentioned above, with spectral studies. […] In all cases, the inhibition of individual CYP activities was evaluated by plotting the respective remaining activity against the inhibitor concentration.

In the next series the test system is HLM CYP enzymes. Put plainly: Spectral study (binding difference spectra) of the interaction with HLM CYP enzymes. The settings on record: for Kd: HLM, CYP 1 µmol·L^−1 in 50 mmol·L^−1 potassium phosphate buffer pH 7.4, absorbance change at about 417 nm, room temperature, read-out: spectroscopic binding constant (KS); for mode of binding to HLM CYP enzymes (difference spectra): maximum at about 380 nm, minimum at about 417 nm (Type I binding spectra). Further details: species or system human. The text has this: Spectral studies in the Soret region were used to detect the substrate-induced difference spectra of human liver microsomal (HLM) CYPs. […] The spectral change corresponds to the formation of a maximum formed at about 380 nm and a minimum at about 417 nm (Figure 2). The values of the corresponding spectroscopic binding constant (KS) for the tested compounds were 39.50 ± 10.06 µmol·L^−1 and 44.86 ± 9.88 µmol·L^−1, respectively. These values indicate the relatively specific binding of these complexes on CYPs.
Figure 2 Spectral determination of the interaction between tested complexes No. 5 (a) and No. 6 (b) and CYP in HLM. […] The concentration of CYP in microsomal preparation, 1 µmol·L^−1 in 50 mmol·L^−1 potassium phosphate buffer (pH 7.4).
The binding difference spectra of the interactions of complex No. 5 and complex No. 6 with microsomal CYP enzymes were followed according to established procedures. The cuvette contained HLM that was diluted to a final concentration of CYP 1 µmol·L^−1 in 50 mmol·L^−1 potassium phosphate buffer (pH 7.4). The tested compounds were dissolved in the same buffer, and the concentration ranges in experiments were 0–183 µmol·L^−1, obtained by diluting a 5 mmol·L^−1 stock solution. Spectra were recorded at room temperature by repetitive scanning between 300 and 700 nm at a scan speed of 200 nm/s. The baseline of the reference cuvette contained HLM diluted to the final concentration of CYP 1 µmol·L^−1 in 50 mmol·L^−1 potassium buffer (pH 7.4). Spectra were recorded on a Varian 4000 UV/VIS spectrophotometer (Varian, Palo Alto, CA, USA). The absorbance change at about 417 nm was plotted against the concentration of the tested compounds. Data were analyzed using the Sigma Plot v. 8.0 graphing software (Jandel Scientific, Chicago, IL, USA).

Series [1] can be described thus: Stability on recrystallization from water and methanol. The settings on record: recrystallized from water and from methanol, crystals of the same composition. In kind it is physicochemical. On the procedure:
[Cu2(μ-fu)(pmdien)2(H2O)2](ClO4)2 (complex No. 5) and [Cu2(μ-dtdp)(pmdien)2(H2O)2](ClO4)2 (complex No. 6) were prepared according to a published procedure. […] The structure of complex No. 6 was presented by us in [20]. The structure of complex No. 5 was measured again (the structure was previously solved with worse parameters by Mautner), and our new single crystal data were deposited under CCDC 2378750. Tables with crystal data, structure refinement, and selected bond lengths and angles are presented in ESI (Tables S1–S3). The molecular structures are depicted in Figure 1. It can be seen that the binuclear copper complexes differ in the dicarboxylato bridge. The coordination number on copper is five. All the copper centers are coordinated by three nitrogen atoms of tridentate chelating ligand pmdien and two oxygen atoms. One oxygen is from a water molecule, and the second one is from a monodentately bonding carboxylato group. The fumarato bridge contains a double bond, whereas the dithiodipropionato bridge is longer, with two sulfur atoms. Neither the double bond nor the sulfur atoms are involved in coordination with central atoms. Two perchlorate anions in each molecule are not involved in coordination. There are only hydrogen bonds among the oxygen atoms of the perchlorate group and hydrogens of the coordination cation.

T1 sequence (P33261 whole entry): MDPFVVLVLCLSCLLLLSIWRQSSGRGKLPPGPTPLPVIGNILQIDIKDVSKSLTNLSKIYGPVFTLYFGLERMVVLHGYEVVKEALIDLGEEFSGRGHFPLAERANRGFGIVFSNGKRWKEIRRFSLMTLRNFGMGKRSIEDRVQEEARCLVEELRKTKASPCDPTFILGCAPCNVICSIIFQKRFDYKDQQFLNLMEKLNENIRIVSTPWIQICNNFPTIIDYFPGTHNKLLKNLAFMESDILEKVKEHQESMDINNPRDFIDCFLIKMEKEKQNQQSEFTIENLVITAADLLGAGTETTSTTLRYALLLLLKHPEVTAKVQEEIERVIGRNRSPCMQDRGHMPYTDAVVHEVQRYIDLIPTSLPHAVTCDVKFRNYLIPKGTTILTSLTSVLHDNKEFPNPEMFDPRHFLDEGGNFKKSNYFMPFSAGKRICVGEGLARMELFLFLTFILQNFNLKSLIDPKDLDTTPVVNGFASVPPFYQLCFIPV

With `CN(C)CCN(C)CCN(C)C.CN(C)CCN(C)CCN(C)C.O.O.O=C([O-])CCSSCCC(=O)[O-].[Cu+2].[Cu+2].[O-][Cl+3]([O-])([O-])[O-].[O-][Cl+3]([O-])([O-])[O-]` [Complex No. 6, [Cu2(μ-dtdp)(pmdien)2(H2O)2](ClO4)2], the IC50 is 6.43 ± 0.63 µM on CYP2C19, approximately 6.4 µM against CYP2C19 (listed as complex No. 6) and 12.26 ± 0.11 µM on CYP2C9. Further, the Kd in the series on HLM CYP enzymes was determined as 44.9 ± 9.88 µM. Besides, in the series with HLM CYP enzymes, the “mode of binding to HLM CYP enzymes (difference spectra)” value is “bind to HLM CYP enzymes as substrates”.
`CN(C)CCN(C)CCN(C)C.CN(C)CCN(C)CCN(C)C.O.O.O=C([O-])/C=C/C(=O)[O-].[Cu+2].[Cu+2].[O-][Cl+3]([O-])([O-])[O-].[O-][Cl+3]([O-])([O-])[O-]` [Complex No. 5, [Cu2(μ-fu)(pmdien)2(H2O)2](ClO4)2]: the results for the IC50 against CYP2C19, on CYP2C19 (listed as complex No. 5) and against CYP2C9 were 2.53 ± 0.59 µM, approximately 2.5 µM and 12.59 ± 0.06 µM, respectively. For the same compound, the Kd in the series on HLM CYP enzymes was determined as 39.5 ± 10.1 µM. The “mode of binding to HLM CYP enzymes (difference spectra)” value with HLM CYP enzymes is listed as “bind to HLM CYP enzymes as substrates”. The “stability of the complex in solvents” value in series [1] was “very good stability”.
